In ChEMBL document CHEMBL1201862, “PubChem BioAssay data set” (2004):
Structures can show the parent of a compound that is named as a salt.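 Protocol summary: plate cells (96-well), add compound at 5 concentrations, incubate 48 h, interpolate endpoints linearly. Here, GI50 denotes the concentration required for 50% inhibition of growth.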 Active and inactive are the calls of the source. Rule as the data show it: active = GI50 up to about 1.1 µM and inactive = higher.

Legend:
Test in all cases: NCI-60 cell line screen, 48 h
OVCAR-5 = tested on: OVCAR-5
M14 = tested on: M14
MDA-MB-435 = tested on: MDA-MB-435
IGROV-1 = tested on: IGROV-1
HCT-15 = tested on: HCT-15
SK-MEL-5 = tested on: SK-MEL-5
LOX IMVI = tested on: LOX IMVI
UACC-257 = tested on: UACC-257
HT-29 = tested on: HT-29
NCI-H460 = tested on: NCI-H460
SF-268 = tested on: SF-268
SF-295 = tested on: SF-295
SK-OV-3 = tested on: SK-OV-3
A549 = tested on: A549
K562 = tested on: K562
NCI/ADR-RES = tested on: NCI/ADR-RES
RXF 393 = tested on: RXF 393
COLO 205 = tested on: COLO 205
SK-MEL-2 = tested on: SK-MEL-2

Measured: GI50

CO[C@H]1C[C@H](n2cc(C)c(=O)[nH]c2=O)O[C@@H]1CO
> 100 µM: HCT-15
inactive: OVCAR-5 > 100 µM | M14 > 100 µM | MDA-MB-435 > 100 µM | IGROV-1 > 100 µM | SK-MEL-5 > 100 µM | LOX IMVI > 100 µM | UACC-257 > 100 µM | HT-29 > 100 µM | NCI-H460 > 100 µM | SF-268 > 100 µM | SF-295 > 100 µM | SK-OV-3 > 100 µM | A549 > 100 µM | K562 > 100 µM | NCI/ADR-RES > 100 µM | RXF 393 > 100 µM | COLO 205 > 100 µM

CC1=NN(C(=O)CC(=O)NC(=O)/C=C\c2ccccc2)C(=O)C1/N=N/c1ccc([N+](=O)[O-])cc1 (configuration not stated)
inactive: OVCAR-5 > 100 µM | M14 > 100 µM | MDA-MB-435 > 100 µM | IGROV-1 58.3 µM | LOX IMVI > 100 µM | HT-29 > 100 µM | NCI-H460 > 100 µM | SF-268 > 100 µM | SF-295 53.6 µM | SK-OV-3 > 100 µM | A549 84.5 µM | K562 53.2 µM | NCI/ADR-RES > 100 µM | RXF 393 > 100 µM | COLO 205 > 100 µM
> 100 µM: HCT-15

Cc1ccc(/C=C/C(=O)Oc2ccc(/C=C3\CCC/C(=C\c4ccc(OC(=O)/C=C/c5ccc(C)cc5)cc4)C3=O)cc2)cc1
> 100 µM: HCT-15
inactive: OVCAR-5 > 100 µM | M14 > 100 µM | MDA-MB-435 > 100 µM | SK-MEL-5 > 100 µM | LOX IMVI > 100 µM | UACC-257 > 100 µM | HT-29 > 100 µM | NCI-H460 > 100 µM | SF-268 > 100 µM | SK-MEL-2 48.3 µM | SF-295 25.1 µM | A549 > 100 µM | NCI/ADR-RES 59.3 µM | COLO 205 > 100 µM

CCOC(=O)N1CCC2C(=C(C)C(C)C3=C2C(=O)c2ccccc2C3=O)C1 (configuration not stated)
3.88 µM: HCT-15
inactive: M14 4.73 µM | MDA-MB-435 2.25 µM | IGROV-1 > 10 µM | SK-MEL-5 1.77 µM | LOX IMVI 3.61 µM | UACC-257 3.29 µM | HT-29 4.07 µM | SF-268 > 10 µM | SF-295 3.82 µM | SK-OV-3 > 10 µM | A549 4.3 µM | K562 3.08 µM | RXF 393 > 10 µM | COLO 205 3.33 µM

C=CCOC(=O)CC[N+]1=CCC(c2ccccc2)(c2ccccc2)O1
inactive: OVCAR-5 > 100 µM | M14 > 100 µM | MDA-MB-435 > 100 µM | IGROV-1 > 100 µM | SK-MEL-5 > 100 µM | UACC-257 > 100 µM | HT-29 > 100 µM | NCI-H460 > 100 µM | SF-268 > 100 µM | SK-MEL-2 > 100 µM | SF-295 > 100 µM | SK-OV-3 > 100 µM | A549 > 100 µM | K562 > 100 µM | RXF 393 > 100 µM | COLO 205 > 100 µM
> 100 µM: HCT-15

CN(C)c1ccc(-c2[nH]c(=O)c3ccccc3[n+]2C)cc1
inactive: OVCAR-5 44.2 µM | M14 41.3 µM | MDA-MB-435 63.8 µM | IGROV-1 > 100 µM | SK-MEL-5 36.6 µM | UACC-257 30.5 µM | HT-29 63.4 µM | NCI-H460 > 100 µM | SF-268 > 100 µM | SF-295 > 100 µM | SK-OV-3 > 100 µM | A549 > 100 µM | K562 58.6 µM | NCI/ADR-RES 39.1 µM | RXF 393 > 100 µM | COLO 205 62.2 µM
> 100 µM: HCT-15

CC(=O)OC12c3ccccc3C(c3ccccc31)C1C(=O)N(c3ccccn3)C(=O)C12 (configuration not stated)
inactive: OVCAR-5 > 100 µM | M14 51.8 µM | IGROV-1 > 100 µM | SK-MEL-5 27.9 µM | LOX IMVI > 100 µM | UACC-257 31.3 µM | HT-29 62.4 µM | SF-268 87.3 µM | SF-295 58.2 µM | SK-OV-3 > 100 µM | A549 62.7 µM | K562 39.1 µM | NCI/ADR-RES 55.2 µM | RXF 393 > 100 µM | COLO 205 64.6 µM
69.3 µM: HCT-15

CCOC(=O)c1cn(C)nc1N/C(C)=C\C(=O)c1ccccc1
inactive: OVCAR-5 > 100 µM | M14 > 100 µM | MDA-MB-435 > 100 µM | IGROV-1 > 100 µM | SK-MEL-5 > 100 µM | LOX IMVI 90.8 µM | UACC-257 > 100 µM | HT-29 60.1 µM | NCI-H460 > 100 µM | SF-268 > 100 µM | SF-295 > 100 µM | SK-OV-3 > 100 µM | A549 > 100 µM | K562 > 100 µM | NCI/ADR-RES > 100 µM | COLO 205 > 100 µM
> 100 µM: HCT-15

CC(=O)OCc1cc(=O)n2c([nH]c3ccccc32)c1C#N
inactive: OVCAR-5 > 100 µM | M14 61.8 µM | IGROV-1 55 µM | SK-MEL-5 49.9 µM | LOX IMVI 68.7 µM | UACC-257 > 100 µM | HT-29 79.4 µM | NCI-H460 18.6 µM | SK-MEL-2 76.6 µM | SF-295 58.3 µM | SK-OV-3 80.7 µM | A549 51.9 µM | K562 65.9 µM | NCI/ADR-RES > 100 µM | RXF 393 59.3 µM | COLO 205 53.3 µM
21.8 µM: HCT-15

CC1CC/C(=C\c2ccc(N(C)C)cc2)C(=O)/C1=C/c1ccc(N(C)C)cc1 (configuration not stated)
> 100 µM: HCT-15
inactive: OVCAR-5 > 100 µM | M14 > 100 µM | MDA-MB-435 > 100 µM | IGROV-1 > 100 µM | SK-MEL-5 > 100 µM | LOX IMVI > 100 µM | UACC-257 > 100 µM | HT-29 > 100 µM | SK-MEL-2 > 100 µM | SF-295 > 100 µM | SK-OV-3 > 100 µM | A549 > 100 µM | K562 > 100 µM | NCI/ADR-RES > 100 µM | COLO 205 > 100 µM

Clc1ccc(OCCSCCCCCCCCCCSCCOc2ccc(Cl)cc2)cc1
> 100 µM: HCT-15
inactive: OVCAR-5 > 100 µM | IGROV-1 > 100 µM | SK-MEL-5 > 100 µM | LOX IMVI > 100 µM | UACC-257 > 100 µM | HT-29 > 100 µM | NCI-H460 > 100 µM | SF-268 > 100 µM | SK-MEL-2 > 100 µM | SF-295 > 100 µM | SK-OV-3 > 100 µM | A549 > 100 µM | K562 > 100 µM | RXF 393 > 100 µM | COLO 205 > 100 µM

CCOC(=O)CCCSCCCC(=O)CCCSCCCC(=O)OCC
inactive: OVCAR-5 > 100 µM | M14 > 100 µM | MDA-MB-435 > 100 µM | IGROV-1 > 100 µM | SK-MEL-5 > 100 µM | LOX IMVI > 100 µM | UACC-257 > 100 µM | HT-29 > 100 µM | NCI-H460 > 100 µM | SF-268 > 100 µM | SF-295 > 100 µM | SK-OV-3 > 100 µM | A549 > 100 µM | K562 > 100 µM | NCI/ADR-RES > 100 µM | COLO 205 > 100 µM
> 100 µM: HCT-15

O=C(O)c1ccccc1SCc1cccc2c(=O)c3ccc(Cl)cc3oc12
> 50 µM: HCT-15
inactive: OVCAR-5 > 50 µM | M14 > 50 µM | MDA-MB-435 > 50 µM | IGROV-1 49.5 µM | SK-MEL-5 > 50 µM | LOX IMVI > 50 µM | UACC-257 > 50 µM | HT-29 > 50 µM | SK-MEL-2 46.9 µM | SF-295 20.2 µM | SK-OV-3 > 50 µM | A549 > 50 µM | K562 27.7 µM | NCI/ADR-RES > 50 µM | COLO 205 > 50 µM

CCNC(=O)Nc1cccc(C)n1
inactive: OVCAR-5 > 100 µM | M14 > 100 µM | MDA-MB-435 > 100 µM | IGROV-1 > 100 µM | SK-MEL-5 > 100 µM | UACC-257 > 100 µM | HT-29 > 100 µM | NCI-H460 > 100 µM | SF-268 > 100 µM | SF-295 > 100 µM | SK-OV-3 > 100 µM | A549 > 100 µM | K562 > 100 µM | RXF 393 > 100 µM | COLO 205 > 100 µM

C=C1C[C@@H]2CC[C@@]34C[C@H]5O[C@H]6[C@@H](O3)[C@H]3O[C@H](CC[C@@H]3O[C@H]6[C@H]5O4)CC(=O)C[C@@H]3[C@@H](OC)[C@@H](C[C@H](O)CN)O[C@H]3C[C@H]3O[C@@H](CC[C@@H]1O2)C[C@@H](C)C3=C [ERIBULIN MESYLATE]
0.053 µM: HCT-15
active: M14 0.00309 µM | MDA-MB-435 5.96e-05 µM | IGROV-1 0.00151 µM | SK-MEL-5 0.000877 µM | LOX IMVI 0.0014 µM | HT-29 0.000352 µM | NCI-H460 0.00172 µM | SF-268 0.00267 µM | SK-MEL-2 0.00607 µM | SF-295 0.0065 µM | SK-OV-3 0.000558 µM | A549 0.00197 µM | K562 0.000916 µM | NCI/ADR-RES 0.294 µM | COLO 205 0.00031 µM

Cc1cnc(-n2c(C)nc3cc(Cl)ccc3c2=O)s1
26.2 µM: HCT-15
inactive: OVCAR-5 56.4 µM | M14 31.6 µM | MDA-MB-435 28.1 µM | IGROV-1 40 µM | SK-MEL-5 16 µM | LOX IMVI 41.6 µM | UACC-257 29.1 µM | HT-29 32.7 µM | NCI-H460 30.2 µM | SF-268 44.1 µM | SK-MEL-2 25.4 µM | SF-295 37.1 µM | SK-OV-3 > 100 µM | A549 32.7 µM | K562 31.1 µM | NCI/ADR-RES 28 µM | COLO 205 19 µM
